Assay results from ChEMBL document CHEMBL1145498, “A systematic interaction map of validated kinase inhibitors with Ser/Thr kinases” (Proc Natl Acad Sci U S A, 2007).

Target: Calcium/calmodulin-dependent protein kinase type II subunit beta (Homo sapiens) (UniProt Q13554)
Sequence (Q13554 whole entry): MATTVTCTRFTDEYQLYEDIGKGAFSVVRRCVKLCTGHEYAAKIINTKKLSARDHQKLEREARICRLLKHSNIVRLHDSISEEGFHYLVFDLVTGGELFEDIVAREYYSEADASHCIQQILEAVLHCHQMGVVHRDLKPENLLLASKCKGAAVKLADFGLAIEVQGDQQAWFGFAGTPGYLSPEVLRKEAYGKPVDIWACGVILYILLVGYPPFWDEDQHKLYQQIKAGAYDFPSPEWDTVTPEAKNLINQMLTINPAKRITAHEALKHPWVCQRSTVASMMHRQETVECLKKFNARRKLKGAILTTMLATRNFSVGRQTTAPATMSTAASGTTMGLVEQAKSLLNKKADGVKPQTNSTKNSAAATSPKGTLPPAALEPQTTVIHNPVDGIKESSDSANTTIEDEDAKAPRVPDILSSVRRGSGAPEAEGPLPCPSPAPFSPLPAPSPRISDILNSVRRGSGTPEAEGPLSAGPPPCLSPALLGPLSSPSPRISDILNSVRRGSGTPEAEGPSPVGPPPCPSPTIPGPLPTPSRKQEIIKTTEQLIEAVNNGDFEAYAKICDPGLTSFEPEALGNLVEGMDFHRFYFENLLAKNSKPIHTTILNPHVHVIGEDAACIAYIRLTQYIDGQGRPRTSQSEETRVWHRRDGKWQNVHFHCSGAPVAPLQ

Row | ΔTm | SMILES
1 | 1.2 °C | O=c1c(-c2ccc(O)cc2)coc2cc(O)cc(O)c12
2 | -0.3 °C | Cc1nc(Nc2ncc(C(=O)Nc3c(C)cccc3Cl)s2)cc(N2CCN(CCO)CC2)n1
3 | 1.2 °C | O=C1Nc2ccc(I)cc2/C1=C1/Nc2ccccc2/C1=N\O
4 | -0.4 °C | Nc1cc2ncnc(Nc3cccc(Br)c3)c2cc1N
5 | -0.3 °C | Clc1ccc(Nc2nnc(Cc3ccncc3)c3ccccc23)cc1
6 | 0.4 °C | CN(C)c1ccc(CC2C(=O)Nc3ccccc32)cc1 (stereo not drawn)
7 | 0.1 °C | Cn1cc(/C=C2/C(=O)Nc3ccc(S(N)(=O)=O)cc32)c2ccccc21

Target: Cyclin-dependent kinase-like 1 (Homo sapiens) (UniProt Q00532)
Sequence (Q00532 whole entry): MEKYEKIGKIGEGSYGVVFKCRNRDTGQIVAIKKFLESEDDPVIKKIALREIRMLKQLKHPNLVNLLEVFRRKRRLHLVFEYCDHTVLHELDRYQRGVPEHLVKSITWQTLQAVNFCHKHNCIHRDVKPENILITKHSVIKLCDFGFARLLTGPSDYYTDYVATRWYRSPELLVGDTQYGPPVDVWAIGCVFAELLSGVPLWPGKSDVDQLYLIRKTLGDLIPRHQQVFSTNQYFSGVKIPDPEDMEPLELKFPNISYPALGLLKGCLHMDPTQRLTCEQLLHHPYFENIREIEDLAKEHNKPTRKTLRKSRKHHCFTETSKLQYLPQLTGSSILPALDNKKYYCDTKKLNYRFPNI

Row | ΔTm | SMILES
8 | -0.1 °C | O=c1c(-c2ccc(O)cc2)coc2cc(O)cc(O)c12
9 | 0.6 °C | Cc1nc(Nc2ncc(C(=O)Nc3c(C)cccc3Cl)s2)cc(N2CCN(CCO)CC2)n1
10 | 5.4 °C | O=C1Nc2ccc(I)cc2/C1=C1/Nc2ccccc2/C1=N\O
11 | 0.8 °C | Nc1cc2ncnc(Nc3cccc(Br)c3)c2cc1N
12 | 0.4 °C | Clc1ccc(Nc2nnc(Cc3ccncc3)c3ccccc23)cc1
13 | -0.3 °C | CN(C)c1ccc(CC2C(=O)Nc3ccccc32)cc1 (stereo not drawn)
14 | 0.2 °C | Cn1cc(/C=C2/C(=O)Nc3ccc(S(N)(=O)=O)cc32)c2ccccc21

Target: Casein kinase I isoform gamma-1 (Homo sapiens) (UniProt Q9HCP0)
Sequence (Q9HCP0 whole entry, looked up, canonical isoform): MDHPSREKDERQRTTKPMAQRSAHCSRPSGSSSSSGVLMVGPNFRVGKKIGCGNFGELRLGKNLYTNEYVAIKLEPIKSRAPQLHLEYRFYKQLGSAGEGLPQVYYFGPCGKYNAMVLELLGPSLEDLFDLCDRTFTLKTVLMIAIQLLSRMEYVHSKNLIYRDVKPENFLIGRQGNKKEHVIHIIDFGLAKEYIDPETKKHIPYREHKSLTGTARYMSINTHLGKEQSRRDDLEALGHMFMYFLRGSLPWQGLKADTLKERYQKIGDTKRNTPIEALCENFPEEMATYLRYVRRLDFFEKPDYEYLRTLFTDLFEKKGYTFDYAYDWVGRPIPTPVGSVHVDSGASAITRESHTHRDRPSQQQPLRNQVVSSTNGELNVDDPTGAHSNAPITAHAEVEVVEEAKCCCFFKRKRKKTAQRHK

Row | ΔTm | SMILES
15 | 0.8 °C | O=c1c(-c2ccc(O)cc2)coc2cc(O)cc(O)c12
16 | 0.3 °C | Cc1nc(Nc2ncc(C(=O)Nc3c(C)cccc3Cl)s2)cc(N2CCN(CCO)CC2)n1
17 | 1.5 °C | O=C1Nc2ccc(I)cc2/C1=C1/Nc2ccccc2/C1=N\O
18 | 0.3 °C | Nc1cc2ncnc(Nc3cccc(Br)c3)c2cc1N
19 | -0.2 °C | Clc1ccc(Nc2nnc(Cc3ccncc3)c3ccccc23)cc1
20 | 1.2 °C | CN(C)c1ccc(CC2C(=O)Nc3ccccc32)cc1 (stereo not drawn)
21 | -0.9 °C | Cn1cc(/C=C2/C(=O)Nc3ccc(S(N)(=O)=O)cc32)c2ccccc21

Target: Glycogen synthase kinase-3 beta (Homo sapiens, UniProt P49841)
Sequence (P49841 whole entry, looked up): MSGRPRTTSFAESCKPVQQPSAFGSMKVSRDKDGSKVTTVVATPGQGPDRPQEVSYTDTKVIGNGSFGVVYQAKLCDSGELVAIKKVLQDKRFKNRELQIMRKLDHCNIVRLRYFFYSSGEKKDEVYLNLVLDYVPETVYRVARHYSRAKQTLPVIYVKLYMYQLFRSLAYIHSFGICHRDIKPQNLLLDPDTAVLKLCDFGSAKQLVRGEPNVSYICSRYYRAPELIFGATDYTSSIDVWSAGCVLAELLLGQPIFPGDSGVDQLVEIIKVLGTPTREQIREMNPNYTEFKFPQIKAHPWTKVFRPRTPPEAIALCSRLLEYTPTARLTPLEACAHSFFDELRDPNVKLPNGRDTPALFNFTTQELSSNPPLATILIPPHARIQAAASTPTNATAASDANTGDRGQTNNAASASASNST

Row | ΔTm | SMILES
22 | 1.1 °C | O=c1c(-c2ccc(O)cc2)coc2cc(O)cc(O)c12
23 | 1.9 °C | Cc1nc(Nc2ncc(C(=O)Nc3c(C)cccc3Cl)s2)cc(N2CCN(CCO)CC2)n1
24 | 8.8 °C | O=C1Nc2ccc(I)cc2/C1=C1/Nc2ccccc2/C1=N\O
25 | 1.2 °C | Nc1cc2ncnc(Nc3cccc(Br)c3)c2cc1N
26 | 0.3 °C | Clc1ccc(Nc2nnc(Cc3ccncc3)c3ccccc23)cc1
27 | 1.2 °C | CN(C)c1ccc(CC2C(=O)Nc3ccccc32)cc1 (stereo not drawn)
28 | 11.6 °C | Cn1cc(/C=C2/C(=O)Nc3ccc(S(N)(=O)=O)cc32)c2ccccc21

Target: Serine/threonine-protein kinase PAK 4 (Homo sapiens) (UniProt O96013)
Sequence (O96013 whole entry, looked up): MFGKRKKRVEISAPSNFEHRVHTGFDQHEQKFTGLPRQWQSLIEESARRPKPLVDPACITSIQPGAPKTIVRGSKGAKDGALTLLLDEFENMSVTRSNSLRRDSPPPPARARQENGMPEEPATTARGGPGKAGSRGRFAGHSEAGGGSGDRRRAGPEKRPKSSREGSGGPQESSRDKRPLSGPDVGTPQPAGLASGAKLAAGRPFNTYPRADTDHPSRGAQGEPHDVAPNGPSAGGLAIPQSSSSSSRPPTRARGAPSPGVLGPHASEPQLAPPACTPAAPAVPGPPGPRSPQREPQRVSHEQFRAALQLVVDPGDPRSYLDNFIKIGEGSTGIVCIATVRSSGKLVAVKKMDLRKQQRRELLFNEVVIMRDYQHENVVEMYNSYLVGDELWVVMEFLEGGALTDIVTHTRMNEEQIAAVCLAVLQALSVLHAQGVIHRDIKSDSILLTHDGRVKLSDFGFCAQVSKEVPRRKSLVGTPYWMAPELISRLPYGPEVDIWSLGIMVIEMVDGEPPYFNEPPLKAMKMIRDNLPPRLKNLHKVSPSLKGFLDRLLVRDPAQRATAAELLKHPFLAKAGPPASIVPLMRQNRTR

Row | ΔTm | SMILES
29 | 0.8 °C | O=c1c(-c2ccc(O)cc2)coc2cc(O)cc(O)c12
30 | 1.6 °C | Cc1nc(Nc2ncc(C(=O)Nc3c(C)cccc3Cl)s2)cc(N2CCN(CCO)CC2)n1
31 | 2.3 °C | O=C1Nc2ccc(I)cc2/C1=C1/Nc2ccccc2/C1=N\O
32 | 0.6 °C | Nc1cc2ncnc(Nc3cccc(Br)c3)c2cc1N
33 | -0.1 °C | Clc1ccc(Nc2nnc(Cc3ccncc3)c3ccccc23)cc1
34 | 0.9 °C | CN(C)c1ccc(CC2C(=O)Nc3ccccc32)cc1 (stereo not drawn)
35 | 3.7 °C | Cn1cc(/C=C2/C(=O)Nc3ccc(S(N)(=O)=O)cc32)c2ccccc21

Target: Serine/threonine-protein kinase PAK 6 (Homo sapiens) (UniProt Q9NQU5)
Sequence (Q9NQU5 whole entry, looked up): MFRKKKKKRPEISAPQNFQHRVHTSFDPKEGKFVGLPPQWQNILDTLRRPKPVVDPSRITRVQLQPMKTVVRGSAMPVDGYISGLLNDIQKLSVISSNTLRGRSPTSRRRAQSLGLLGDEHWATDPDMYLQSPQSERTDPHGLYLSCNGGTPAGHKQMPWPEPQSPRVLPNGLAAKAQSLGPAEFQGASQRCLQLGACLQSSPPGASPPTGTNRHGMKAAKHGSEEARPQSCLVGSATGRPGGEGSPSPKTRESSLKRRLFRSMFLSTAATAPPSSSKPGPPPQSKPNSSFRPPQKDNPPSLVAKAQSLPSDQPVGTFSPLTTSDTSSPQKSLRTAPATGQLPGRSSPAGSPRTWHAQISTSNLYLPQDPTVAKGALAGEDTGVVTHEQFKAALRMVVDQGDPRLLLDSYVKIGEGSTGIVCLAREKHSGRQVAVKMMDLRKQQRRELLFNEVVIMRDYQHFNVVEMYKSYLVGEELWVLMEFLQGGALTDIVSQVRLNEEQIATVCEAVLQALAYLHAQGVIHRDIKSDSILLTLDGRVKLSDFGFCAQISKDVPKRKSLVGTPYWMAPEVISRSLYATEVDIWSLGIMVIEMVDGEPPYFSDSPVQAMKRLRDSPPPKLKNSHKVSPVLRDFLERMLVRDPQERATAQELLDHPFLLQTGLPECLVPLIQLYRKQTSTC

Row | ΔTm | SMILES
36 | -0.9 °C | O=c1c(-c2ccc(O)cc2)coc2cc(O)cc(O)c12
37 | 2.1 °C | Cc1nc(Nc2ncc(C(=O)Nc3c(C)cccc3Cl)s2)cc(N2CCN(CCO)CC2)n1
38 | 0.9 °C | O=C1Nc2ccc(I)cc2/C1=C1/Nc2ccccc2/C1=N\O
39 | 0.3 °C | Nc1cc2ncnc(Nc3cccc(Br)c3)c2cc1N
40 | 0 °C | Clc1ccc(Nc2nnc(Cc3ccncc3)c3ccccc23)cc1
41 | 0.1 °C | CN(C)c1ccc(CC2C(=O)Nc3ccccc32)cc1 (stereo not drawn)
42 | -0.6 °C | Cn1cc(/C=C2/C(=O)Nc3ccc(S(N)(=O)=O)cc32)c2ccccc21

Target: T1, Serine/threonine-protein kinase PLK4 (Homo sapiens) (UniProt O00444)
T1 sequence (whole entry): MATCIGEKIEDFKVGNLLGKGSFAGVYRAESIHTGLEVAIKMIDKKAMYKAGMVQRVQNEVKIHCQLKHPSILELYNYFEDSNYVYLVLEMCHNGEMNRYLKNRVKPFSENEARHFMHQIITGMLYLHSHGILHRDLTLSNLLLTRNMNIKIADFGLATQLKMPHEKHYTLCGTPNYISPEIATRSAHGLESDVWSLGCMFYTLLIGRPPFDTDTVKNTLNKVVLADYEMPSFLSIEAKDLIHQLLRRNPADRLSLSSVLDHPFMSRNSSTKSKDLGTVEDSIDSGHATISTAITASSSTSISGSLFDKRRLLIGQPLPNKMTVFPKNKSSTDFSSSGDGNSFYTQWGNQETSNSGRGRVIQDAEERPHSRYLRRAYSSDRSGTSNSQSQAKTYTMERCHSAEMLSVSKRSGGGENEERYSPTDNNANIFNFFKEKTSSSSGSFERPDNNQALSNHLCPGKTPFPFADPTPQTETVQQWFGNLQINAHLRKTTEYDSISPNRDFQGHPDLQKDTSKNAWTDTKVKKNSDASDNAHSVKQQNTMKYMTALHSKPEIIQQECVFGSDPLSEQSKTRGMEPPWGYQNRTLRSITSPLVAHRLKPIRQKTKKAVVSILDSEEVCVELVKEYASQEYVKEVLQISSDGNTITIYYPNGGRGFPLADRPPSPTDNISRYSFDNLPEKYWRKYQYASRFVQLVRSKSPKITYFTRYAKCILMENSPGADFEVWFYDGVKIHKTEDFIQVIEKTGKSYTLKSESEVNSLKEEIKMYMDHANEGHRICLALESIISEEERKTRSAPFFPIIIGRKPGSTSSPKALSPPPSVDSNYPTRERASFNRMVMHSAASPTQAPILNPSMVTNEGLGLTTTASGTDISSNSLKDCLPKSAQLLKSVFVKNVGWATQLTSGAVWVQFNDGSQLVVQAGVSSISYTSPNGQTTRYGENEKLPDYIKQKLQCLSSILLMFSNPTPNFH

Row | ΔTm | SMILES
43 | 0.4 °C | O=c1c(-c2ccc(O)cc2)coc2cc(O)cc(O)c12
44 | 2.5 °C | Cc1nc(Nc2ncc(C(=O)Nc3c(C)cccc3Cl)s2)cc(N2CCN(CCO)CC2)n1
45 | 8.7 °C | O=C1Nc2ccc(I)cc2/C1=C1/Nc2ccccc2/C1=N\O
46 | 1.5 °C | Nc1cc2ncnc(Nc3cccc(Br)c3)c2cc1N
47 | 0.4 °C | Clc1ccc(Nc2nnc(Cc3ccncc3)c3ccccc23)cc1
48 | 2.8 °C | CN(C)c1ccc(CC2C(=O)Nc3ccccc32)cc1 (stereo not drawn)
49 | 6.2 °C | Cn1cc(/C=C2/C(=O)Nc3ccc(S(N)(=O)=O)cc32)c2ccccc21

Target: Serine/threonine-protein kinase 16 (Homo sapiens) (UniProt O75716)
Sequence (O75716 whole entry): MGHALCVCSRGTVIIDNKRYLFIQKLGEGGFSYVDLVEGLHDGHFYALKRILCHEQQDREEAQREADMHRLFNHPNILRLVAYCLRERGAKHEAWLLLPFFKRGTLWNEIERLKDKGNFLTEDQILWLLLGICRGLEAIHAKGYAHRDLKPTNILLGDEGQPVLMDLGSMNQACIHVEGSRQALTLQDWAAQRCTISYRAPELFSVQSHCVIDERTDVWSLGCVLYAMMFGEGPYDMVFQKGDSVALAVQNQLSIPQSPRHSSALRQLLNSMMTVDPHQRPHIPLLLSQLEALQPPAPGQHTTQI

Row | ΔTm | SMILES
50 | 4.3 °C | O=c1c(-c2ccc(O)cc2)coc2cc(O)cc(O)c12
51 | 1.9 °C | O=C1Nc2ccc(I)cc2/C1=C1/Nc2ccccc2/C1=N\O
52 | 0.1 °C | Nc1cc2ncnc(Nc3cccc(Br)c3)c2cc1N
53 | 1.9 °C | CN(C)c1ccc(CC2C(=O)Nc3ccccc32)cc1 (stereo not drawn)
54 | 1.7 °C | Cn1cc(/C=C2/C(=O)Nc3ccc(S(N)(=O)=O)cc32)c2ccccc21

Target: Serine/threonine-protein kinase 38 (Homo sapiens) (UniProt Q15208)
Sequence (Q15208 2-465 limits assumed): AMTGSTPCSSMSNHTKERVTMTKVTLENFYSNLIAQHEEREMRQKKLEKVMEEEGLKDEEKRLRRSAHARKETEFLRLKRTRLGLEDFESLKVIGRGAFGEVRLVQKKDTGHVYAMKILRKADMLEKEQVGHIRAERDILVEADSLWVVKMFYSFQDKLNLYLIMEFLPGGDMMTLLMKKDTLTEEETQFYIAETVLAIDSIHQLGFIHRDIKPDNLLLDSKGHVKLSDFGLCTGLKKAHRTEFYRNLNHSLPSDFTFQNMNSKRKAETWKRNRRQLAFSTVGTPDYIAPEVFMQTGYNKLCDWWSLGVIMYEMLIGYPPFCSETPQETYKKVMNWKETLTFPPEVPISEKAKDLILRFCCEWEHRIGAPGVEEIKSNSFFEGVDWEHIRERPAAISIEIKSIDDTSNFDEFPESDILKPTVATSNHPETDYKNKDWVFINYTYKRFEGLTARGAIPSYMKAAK

Row | ΔTm | SMILES
55 | 0.6 °C | O=c1c(-c2ccc(O)cc2)coc2cc(O)cc(O)c12
56 | 2 °C | O=C1Nc2ccc(I)cc2/C1=C1/Nc2ccccc2/C1=N\O
57 | 0.1 °C | Nc1cc2ncnc(Nc3cccc(Br)c3)c2cc1N
58 | 1.5 °C | CN(C)c1ccc(CC2C(=O)Nc3ccccc32)cc1 (stereo not drawn)
59 | 3.6 °C | Cn1cc(/C=C2/C(=O)Nc3ccc(S(N)(=O)=O)cc32)c2ccccc21

Target: Serine/threonine-protein kinase VRK2 (Homo sapiens) (UniProt Q86Y07)
Sequence (Q86Y07 whole entry): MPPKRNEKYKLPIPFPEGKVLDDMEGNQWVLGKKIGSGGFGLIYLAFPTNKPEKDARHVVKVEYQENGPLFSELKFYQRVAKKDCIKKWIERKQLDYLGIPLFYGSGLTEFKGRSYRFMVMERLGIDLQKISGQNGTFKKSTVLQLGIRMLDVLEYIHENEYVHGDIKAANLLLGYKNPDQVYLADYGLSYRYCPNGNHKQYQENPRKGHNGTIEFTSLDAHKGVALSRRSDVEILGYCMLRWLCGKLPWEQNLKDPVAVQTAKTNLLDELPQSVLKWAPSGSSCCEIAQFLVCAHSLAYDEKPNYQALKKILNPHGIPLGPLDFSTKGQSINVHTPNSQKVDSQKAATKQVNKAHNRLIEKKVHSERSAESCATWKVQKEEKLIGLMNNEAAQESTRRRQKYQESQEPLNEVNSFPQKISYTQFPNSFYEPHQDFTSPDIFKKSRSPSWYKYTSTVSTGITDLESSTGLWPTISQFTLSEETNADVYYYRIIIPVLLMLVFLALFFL

Row | ΔTm | SMILES
60 | 0.1 °C | O=c1c(-c2ccc(O)cc2)coc2cc(O)cc(O)c12
61 | 4.3 °C | O=C1Nc2ccc(I)cc2/C1=C1/Nc2ccccc2/C1=N\O
62 | 1.2 °C | Nc1cc2ncnc(Nc3cccc(Br)c3)c2cc1N
63 | 0.6 °C | CN(C)c1ccc(CC2C(=O)Nc3ccccc32)cc1 (stereo not drawn)
